Experimental data published in the CheMixHub drug solubility set.

Assay: xn = mol fraction of the nth substance listed, in the solute-free solvent

O=C(O)c1ccc(C(=O)O)o1 + C1CCOC1 + O
solubility (g/100 g solution)
Conditions | 293.15 K | 298.15 K | 303.15 K | 308.15 K | 313.15 K | 318.15 K | 323.15 K | 328.15 K | 333.15 K
x2 = 0.1 | 1.53 | 1.63 | 1.73 | 1.9 | 2.08 | 2.35 | 2.63 | 2.88 | 3.15
x2 = 0.2 | 3.7 | 3.93 | 4.22 | 4.48 | 4.77 | 5.08 | 5.38 | 5.73 | 6.11
x2 = 0.3 | 4.89 | 5.24 | 5.6 | 5.94 | 6.31 | 6.69 | 7.1 | 7.45 | 7.84
x2 = 0.4 | 6.39 | 6.62 | 6.87 | 7.22 | 7.6 | 7.91 | 8.25 | 8.62 | 9.02
x2 = 0.5 | 6.7 | 6.95 | 7.21 | 7.48 | 7.76 | 8.1 | 8.47 | 8.86 | 9.32
x2 = 0.6 | 6.58 | 6.9 | 7.24 | 7.5 | 7.81 | 8.16 | 8.54 | 9.01 | 9.52
x2 = 0.7 | 6.04 | 6.39 | 6.76 | 7.09 | 7.43 | 7.77 | 8.14 | 8.5 | 8.9
x2 = 0.8 | 4.95 | 5.3 | 5.68 | 5.96 | 6.26 | 6.51 | 6.79 | 7.11 | 7.47
x2 = 0.9 | 3.55 | 3.67 | 3.81 | 3.98 | 4.16 | 4.33 | 4.51 | 4.74 | 4.98

Oc1ccc(Cl)c2cccnc12 + C1COCCO1 + CCO
solubility (g/100 g solution)
Conditions | 278.15 K | 283.15 K | 288.15 K | 293.15 K | 298.15 K | 303.15 K | 308.15 K | 313.15 K | 318.15 K | 323.15 K
x2 = 0.1156 | 2.02 | 2.27 | 2.73 | 3.17 | 3.66 | 4.34 | 5.1 | 5.96 | 7.04 | 8.35
x2 = 0.2585 | 3.35 | 3.86 | 4.46 | 5.19 | 6.15 | 7.28 | 8.38 | 9.82 | 11.4 | 13.3
x2 = 0.4396 | 4.92 | 5.68 | 6.53 | 7.56 | 8.72 | 10.3 | 11.9 | 13.8 | 15.9 | 18.2
x2 = 0.6765 | 6.81 | 7.83 | 8.96 | 10.3 | 11.8 | 13.8 | 15.8 | 17.9 | 20.5 | 23.3

O=C(O)c1ccc(C(=O)O)o1 + C1COCCO1 + O
solubility (g/100 g solution)
Conditions | 303.15 K | 308.15 K | 313.15 K | 318.15 K | 323.15 K | 328.15 K | 333.15 K | 338.15 K | 343.15 K
x2 = 0.1 | 1.85 | 1.98 | 2.15 | 2.38 | 2.63 | 2.92 | 3.24 | 3.48 | 3.73
x2 = 0.2 | 3.44 | 3.54 | 3.81 | 4.02 | 4.28 | 4.56 | 4.78 | 5.12 | 5.5
x2 = 0.3 | 3.8 | 4.14 | 4.34 | 4.76 | 5.21 | 5.62 | 6.07 | 6.46 | 7.05
x2 = 0.4 | 4.76 | 5.23 | 5.55 | 5.79 | 6.04 | 6.37 | 6.72 | 7.27 | 7.87
x2 = 0.5 | 4.37 | 4.77 | 5.03 | 5.38 | 5.75 | 6.1 | 6.48 | 6.97 | 7.5
x2 = 0.6 | 3.77 | 4.11 | 4.39 | 4.66 | 5 | 5.3 | 5.63 | 6.04 | 6.44
x2 = 0.7 | 3.03 | 3.32 | 3.51 | 3.71 | 3.94 | 4.25 | 4.48 | 4.89 | 5.36
x2 = 0.8 | 2.38 | 2.62 | 2.75 | 2.96 | 3.11 | 3.32 | 3.55 | 3.81 | 4.1
x2 = 0.9 | 1.3 | 1.42 | 1.54 | 1.73 | 1.93 | 2.11 | 2.35 | 2.61 | 2.87

O=C(O)c1cc([N+](=O)[O-])ccc1O + CC#N + O
solubility (g/100 g solution)
Conditions | 278.15 K | 283.15 K | 288.15 K | 293.15 K | 298.15 K | 303.15 K | 308.15 K | 313.15 K | 318.15 K | 323.15 K
x2 = 0.04651 | 0.16 | 0.194 | 0.238 | 0.291 | 0.357 | 0.446 | 0.552 | 0.685 | 0.838 | 1.03
x2 = 0.0989 | 0.399 | 0.59 | 0.782 | 0.967 | 1.18 | 1.42 | 1.71 | 2.02 | 2.34 | 2.73
x2 = 0.1583 | 1.06 | 1.33 | 1.68 | 2.11 | 2.54 | 3.11 | 3.71 | 4.38 | 5.16 | 6.05
x2 = 0.2264 | 2.36 | 2.8 | 3.34 | 4.03 | 4.74 | 5.57 | 6.57 | 7.63 | 8.9 | 10.3
x2 = 0.3051 | 3.97 | 4.82 | 5.77 | 6.86 | 8.19 | 9.58 | 11.1 | 12.7 | 14.5 | 16.6
x2 = 0.397 | 7.03 | 7.9 | 8.98 | 10.4 | 11.9 | 13.8 | 15.9 | 18.1 | 20.2 | 22.5
x2 = 0.506 | 9.09 | 10.3 | 11.8 | 13.6 | 15.5 | 17.5 | 19.6 | 21.8 | 23.9 | 26.2
x2 = 0.6372 | 10.7 | 11.8 | 13.5 | 15.5 | 17.8 | 19.9 | 21.9 | 24.7 | 26.9 | 28.9
x2 = 0.798 | 12 | 13.3 | 15 | 17.2 | 19.5 | 21.5 | 24.3 | 26.8 | 29.3 | 31.8
